In publication PMC12766724, “Synthesis, Anthelmintic Activity, and Mechanism of Action of 5‑Aryl‑1H‑indoles” (Journal of Agricultural and Food Chemistry, 2025):
Like-named read-outs stand apart in the source and are kept apart here.

How the values were obtained:
[1] = tested on: age unsynchronized Ditylenchus destructor; experiment: Motility on WMicrotracker ONE; assay type: in vivo
Protocol: Populations of D. destructor, kindly provided by Central Institute for Supervising and Testing in Agriculture, the Ministry of Agriculture of the Czech Republic, were maintained according to the protocol previously described here.
(§1) The effect of compounds on motility of H. contortus, D. destructor, and H. schachtii was evaluated using the WMicrotracker ONE platform according to previously published protocols. ,
(§2) The instrument evaluates the activity of small animals by counting how many times infrared light microbeams passing through the wells of a microtiter plate are interrupted. In age-unsynchronized populations of D. destructor, we observed reduced motility of worm populations treated with the halogenated derivatives i-19, i-20, and i-21 (Figures A, S2.1A, S2.2A and Table S2.1). […] The decreases in mean activity counts after 72 h of treatment at 100 μM were 85% and 97%, respectively.

[2] = tested on: Heterodera schachtii second-stage juveniles (J2); experiment: Motility on WMicrotracker ONE; assay type: in vivo
Protocol: H. schachtii was maintained on mustard (Sinapsis alba cv. Albatros) roots grown in vitro on modified KNOP medium according to the previously published protocols. ,
as §1, §2

Skin fibroblasts (BJ) = experiment: Resazurin assay, 3-day treatment; assay type: cell-based, human; conditions: BJ
Protocol: Skin fibroblasts (BJ) were obtained from the American Type Culture Collection (ATCC, Manassas, VA), while human keratinocytes (HaCaT) were sourced from the German Cancer Research Center in Heidelberg, Germany. Cells were cultured in a standard DMEM medium from Sigma-Aldrich, supplemented with 10% fetal bovine serum, 2 mM glutamine, 100 U/mL penicillin, and 100 μg/mL streptomycin. Cultures were maintained under standard conditions (37 °C, 5% CO2, humidified atmosphere) and subcultured two to three times per week. We assessed the effect of 3-day compound treatments on cell viability using a resazurin reduction assay measuring mitochondrial activity. Approximately 5,000 cells in 80 μL of culture medium were seeded into the wells of a 96-well plate. Twenty-four hours later, 20 μL of 5-fold concentrated test compound solutions was added and tested across three concentrations prepared through 2-fold serial dilutions. The highest final concentration was 40 μM. After 72 h, we added an 11-fold concentrated resazurin solution to the wells, achieving a final concentration of 0.0125 μM. Fluorescence (ex = 570 nm, em = 610 nm) was measured after 3 h of incubation. […]

[3] = tested on: human keratinocytes (HaCaT); experiment: Resazurin assay, 3-day treatment; assay type: cell-based
Protocol: Skin fibroblasts (BJ) were obtained from the American Type Culture Collection (ATCC, Manassas, VA), while human keratinocytes (HaCaT) were sourced from the German Cancer Research Center in Heidelberg, Germany. Cells were cultured in a standard DMEM medium from Sigma-Aldrich, supplemented with 10% fetal bovine serum, 2 mM glutamine, 100 U/mL penicillin, and 100 μg/mL streptomycin. Cultures were maintained under standard conditions (37 °C, 5% CO2, humidified atmosphere) and subcultured two to three times per week. We assessed the effect of 3-day compound treatments on cell viability using a resazurin reduction assay measuring mitochondrial activity. Approximately 5,000 cells in 80 μL of culture medium were seeded into the wells of a 96-well plate. Twenty-four hours later, 20 μL of 5-fold concentrated test compound solutions was added and tested across three concentrations prepared through 2-fold serial dilutions. The highest final concentration was 40 μM. After 72 h, we added an 11-fold concentrated resazurin solution to the wells, achieving a final concentration of 0.0125 μM. Fluorescence (ex = 570 nm, em = 610 nm) was measured after 3 h of incubation.
The disubstituted derivatives i-25 and i-27 were the most toxic in the set, causing around a 50% decrease in viability of HaCaT cells at 40 μM.

C. elegans N2 wild-type = experiment: Chitinase assay (reproductive capacity); assay type: in vivo, Caenorhabditis elegans
Protocol: (§3) The effect of compounds on C. elegans was evaluated using the Chitinase assay as we described previously.
After exposing L1 larvae to the compounds for 4 days, we observed the populations under a microscope and measured the Chitinase activity. The larvae produce the enzyme while hatching, and its activity is indicative of the reproductive capacity of the worms. Populations that fail to reproduce due to acute or reproductive toxicity or developmental abnormalities are detected.

[4] = tested on: Arabidopsis thaliana Col-0; experiment: Germination rate and phytotoxicity; assay type: in vivo; conditions: for average fraction of germinated seeds: 5 DPS; for main root length / plant weight: 10 DPS
Protocol: Wild-type A. thaliana (Col-0 ecotype) seeds were sterilized with 70% EtOH with 0.1% Tween-20 solution (2 × 1 mL) for 10 min, rinsed with 96% EtOH (1 × 1 mL) for 10 min, and kept in the fridge (4 °C in the dark). Seeds were sown on a sterile 1/2 MS medium supplemented with 0.3% DMSO as a mock and test compounds at 5, 10, 50, and 100 μM concentrations in 0.3% DMSO. Plates were kept in long-day light conditions (22 °C/20 °C, 16 h light/8 h dark, 100 μmol m^–2 s^–1). After 5 days, the germination rate was evaluated. After an additional 5 days, primary root growth was measured with ImageJ software (https://imagej.nih.gov/ij/), and seedlings were weighted.

[5] = tested on: C. elegans DA1316 avr-14(ad1305) I; avr-15(vu227) glc-1(pk54) V.; experiment: Chitinase assay (reproductive capacity); assay type: in vivo; conditions: Caenorhabditis elegans; ivermectin-resistant strain
Protocol: (§4) C. elegans strains used in this study were N2 (wild-type), levamisole-resistant strains ZZ15 (lev-8(x15) X) and […] (lev-1(e211) IV), ivermectin-resistant strain DA1316 (avr-14(ad1305) I; avr-15(vu227) glc-1(pk54) V), mebendazole-resistant strain […] (ben-1(e1880) III), and three strains with mutations in succinate dehydrogenase, RP2699, RP2700, and RP2702. The worms were cultivated on Nematode Growth Medium agar plates seeded with Escherichia coli OP50 in 20 °C according to the standard cultivation protocols. Strains RP2699, RP2700, and RP2702 were generated by Prof. Peter Roy’s group. All other strains and bacteria were purchased from the Caenorhabditis Genetics Center (CGC, Minneapolis, MN).
as §3
(§5) Lastly, strain DA1316 has mutations in three genes encoding subunits of the glutamate-gated chloride channel and is highly resistant to avermectins.

[6] = tested on: C. elegans CB211 lev-1(e211) IV.; experiment: Chitinase assay (reproductive capacity); assay type: in vivo; conditions: Caenorhabditis elegans; levamisole-resistant strain
Protocol: as §4, §3, §5

[7] = tested on: C. elegans ZZ15 lev-8(x15) X.; experiment: Chitinase assay (reproductive capacity); assay type: in vivo; conditions: Caenorhabditis elegans; levamisole-resistant strain
Protocol: as §4, §3, §5

[8] = tested on: C. elegans CB3474 ben-1(e1880) III.; experiment: Chitinase assay (reproductive capacity); assay type: in vivo; conditions: Caenorhabditis elegans; mebendazole-resistant strain
Protocol: as §4, §3, §5

[9] = 10 mM group, initial (prior to the treatment)
[10] = 10 µM group, initial (prior to the treatment)
[11] = 50 µM group, initial (prior to the treatment)
[12] = 100 µM group, initial (prior to the treatment)

For [N-]=[N+]=[N-].[Na+] [NaN3, reference compound], the average activity counts [1, 9] was 223, the average activity counts ([1]; 10 mM, 48 h) was 7 and the average activity counts ([1]; 10 mM, 72 h) was 2. The average activity counts [2, 9] was 182, the average activity counts ([2]; 10 mM, 48 h) was 2 and the average activity counts ([2]; 10 mM, 72 h) was 2.
With Oc1cccc(-c2ccc3[nH]ccc3c2)c1 [i-3] the “Average viability (signal intensity relative to control)” value (Skin fibroblasts (BJ); 10 µM) was 1 ± 0.01, the “Average viability (signal intensity relative to control)” value (Skin fibroblasts (BJ); 20 µM) was 0.97 ± 0 and the “Average viability (signal intensity relative to control)” value (Skin fibroblasts (BJ); 40 µM) was 0.89 ± 0. The “Average viability (signal intensity relative to control)” value ([3]; 10 µM) was 1.02 ± 0.06, the “Average viability (signal intensity relative to control)” value ([3]; 20 µM) was 1 ± 0.06 and the “Average viability (signal intensity relative to control)” value ([3]; 40 µM) was 0.93 ± 0.06.
For COc1ccc(-c2ccc3[nH]ccc3c2)cc1 [i-7], the IC50 (C. elegans N2 wild-type; Caenorhabditis elegans) was 15.8 ± 1.78 µM.
With CCOc1cccc(-c2ccc3[nH]ccc3c2)c1 [i-9] the “average fraction of germinated seeds” value ([4]; 5 µM) was 0.96, the main root length ([4]; 5 µM) was 40.21 mm and the plant weight ([4]; 5 µM) was 33.97 mg. For the same compound, the “average fraction of germinated seeds” value ([4]; 10 µM) was 0.95, the main root length ([4]; 10 µM) was 41.46 mm and the plant weight ([4]; 10 µM) was 35.69 mg. For the same compound, the “average fraction of germinated seeds” value ([4]; 50 µM) was 0.96, the main root length ([4]; 50 µM) was 35.05 mm and the plant weight ([4]; 50 µM) was 31.4 mg. For the same compound, the IC50 (C. elegans N2 wild-type) was 9.76 ± 0.93 µM, the IC50 (C. elegans N2 wild-type; Caenorhabditis elegans) was < 10 µM and the average activity counts [1, 10] was 199. It also gave an average activity counts ([1]; 10 µM, 48 h) of 183, an average activity counts ([1]; 10 µM, 72 h) of 205 and an average activity counts [1, 11] of 200. For the same compound, the average activity counts ([1]; 50 µM, 48 h) was 176, the average activity counts ([1]; 50 µM, 72 h) was 212 and the average activity counts [1, 12] was 228. The average activity counts ([1]; 100 µM, 48 h) was 171, the average activity counts ([1]; 100 µM, 72 h) was 181 and the “Average viability (signal intensity relative to control)” value (Skin fibroblasts (BJ); 10 µM) was 0.92 ± 0.03. For the same compound, the “Average viability (signal intensity relative to control)” value (Skin fibroblasts (BJ); 20 µM) was 0.97 ± 0.04, the “Average viability (signal intensity relative to control)” value (Skin fibroblasts (BJ); 40 µM) was 0.94 ± 0.03 and the “Average viability (signal intensity relative to control)” value ([3]; 10 µM) was 0.97 ± 0.04. The “Average viability (signal intensity relative to control)” value ([3]; 20 µM) was 1.01 ± 0.05, the “Average viability (signal intensity relative to control)” value ([3]; 40 µM) was 0.99 ± 0.02 and the average activity counts [2, 10] was 167. It also gave an average activity counts ([2]; 10 µM, 48 h) of 161, an average activity counts ([2]; 10 µM, 72 h) of 159 and an average activity counts [2, 11] of 201. It also gave an average activity counts ([2]; 50 µM, 48 h) of 207, an average activity counts ([2]; 50 µM, 72 h) of 188 and an average activity counts [2, 12] of 193. It also gave an average activity counts ([2]; 100 µM, 48 h) of 202, an average activity counts ([2]; 100 µM, 72 h) of 171 and an IC50 [5] of 9.34 ± 2.01 µM. For the same compound, the IC50 [6] was 9.65 ± 1.82 µM, the IC50 [7] was 9.71 ± 1.34 µM and the IC50 [8] was 10.2 ± 0.5 µM.
